Assay results published in patent publication US20200190592A1, “PME-1 AS A BIOMARKER TO PREDICT AND DIAGNOSE AN INCREASED RISK OF ENDOMETRIAL CANCER AND GENE SILENCING OF PME-1 TO INHIBIT EPITHELIAL TO MESENCHYMAL TRANSITION” (Medical Diagnostic Laboratories, L.L.C., priority 2018, published 2020).

Legend:
Type in all cases: cell-based, human
RL95-2 cells [1] = test: Colony forming / invasive growth assay in Matrigel; conditions: RL95-2 in Matrigel
Procedure: To determine if PME-1 contributes to the more invasive and metastatic phenotypes, we performed a colony forming assay in matrigel.
The 3D On Top Matrigel Assay was completed in 24 well dishes as described previously {Lee, 2007 #1577}. Briefly, the bottoms of 24 well dishes were coated with 50 μl BD Matrigel Basement Matrix Phenol Red Free (BD Biosciences cat. #356237) and allowed to solidify at 37° C. 10^5 cells were suspended in 250 μl chilled medium containing either 10 ng/ml of TGF-b or vehicle and allowed to settle at 37° C. for 30 minutes. Chilled medium containing 10% of Matrigel was added by pipetting gently down the sidewall of the well and incubated at 37° C. for ten days changing top medium every second day. Colony counts were performed on the tenth day, averages were taken from three fields of view using a 10× objective. Experiment was repeated three times.

PP2A = PP2A phosphatase assay on RL95-2 whole cell extract; conditions: RL95-2 cells, 500 μg whole cell extract, vs non-targeting control
Procedure: Because PME-1 is a known inhibitor of PP2A, we confirmed in this study that depletion of PME-1 by siRNA led to an increase in PP2A activity in cells. To do so, we treated RL95-2 cells with either non-targeting siRNA (Control) or siRNA against PPME1. PP2A activity was monitored using a phosphatase assay (R&D Systems Duo IC Set phosphatase assay kit). In the phosphatase assay, we used 500 μg of whole cell extract and followed the manufacturer's recommendations.
Whole cell lysates were used with the DuoSet IC PP2A Phosphatase Assay Kit (R&D Systems). Procedure was carried out as per kit instructions with 500 μg protein and the absorbance was measured at 620 nm. The assay was repeated twice with similar results.

ECC-1 cells = test: Foci formation analysis in ECC-1 cells; conditions: 10 days
Procedure: We performed a foci formation analysis by transfecting (i) empty FLAG vector, (ii) FLAG-PPP2CA, (iii) FLAG-PPP4C, or (iv) FLAG-PPP6C into ECC-1 cells that stably expressed either (i) shSCR (non-targeting shRNA, black bars) or (ii) shPPME1 (depletes PME-1 levels, white bars) (FIG. 24).
(§1) 1,000 cells were plated in a six well tissue culture dish in selection media (to include 5 μg/ml puromycin) (InvivoGen). Cells were allowed to adhere and grow in a 5% CO2, 37° C. incubator for 10 to 14 days. Media was replaced every fourth day. Cells were stained with 1% crystal violet (Sigma Aldrich) for five minutes and rinsed with PBS. Colonies were counted and data is presented as the percentage of change compared to the control. All Experiments were repeated at least three times.

phospho-Akt = test: Western analysis of Akt phosphorylation in RL95-2 cells; conditions: PME-1 knocked down
Procedure: We observed a similar trend for the Akt signaling pathway. There was an increase in phosphorylation of Akt on threonine 308 (T308) when PME-1 was over-expressed compared to control. There was a decrease in phosphorylation of Akt when PME-1 was knocked down (FIG. 18B). PME-1 over-expression specifically increases the phosphorylation of Akt on T308, but not serine 473 (S473). Importantly, when cells were incubated with upstream inhibitors of Akt phosphorylation (LY294002), there was a decrease in the phospho-forms (FIGS. 18A and 18B), as expected.
15 μg of protein was used for western analysis. PME-1 antibody (Santa Cruz) and COXIV (Cell Signaling Technologies) were used for detection of proteins and the blots were developed using chemiluminescence (Pierce ECL Western Blotting Substrate—Thermo Scientific) on the GE ImageQuant LAS 4000. For analysis of Akt, ERK, and β-catenin signaling in tissue culture, western analyses were completed as follows. RL95-2 cells stably infected with lentivirus expressing constructs were selected with puromycin (Invivogen). The cells were incubated with either 50 μM Akt inhibitor (LY 294002, Cell Signaling Technologies) or 40 μM ERK inhibitor (V0126, Cell Signaling Technologies) for 1-2 hours at 37° C. 1.5× Laemelli buffer (0.5 M Tris pH6.8, […], 10% sodium dodecyl sulfate, 100 mM EDTA) was used to prepare cell lysates. […]

RL95-2 cells [2] = test: Foci forming assay in RL95-2 cells; conditions: RL95-2, PME-1 depleted, compared to control cells
Procedure: A foci forming assay was used in this study to monitor cell growth. Equal amounts of cells were plated and they were allowed to grow for a determined period of time (see Materials and Methods section for details). The foci that were formed were then stained with the crystal violet dye. Cells were washed […] with PBS prior to visualization. Numbers of foci were counted and results were averaged among different experiments.
To determine if the loss of active PME-1 accounted for the observed decrease in foci formation, we first treated RL95-2 cells with siRNA against the 3′-UTR of PPME1 to decrease endogenous levels of PME-1. […] The S156A PME-1 mutant is not capable of demethylating its target, PP2A.
as §1

phospho-ERK = test: Western analysis of phospho-ERK in RL95-2 cells; conditions: compared to control cells; total ERK as reference
Procedure: When PME-1 was depleted with shRNA, there was a decrease in phospho-ERK compared to control cells.
15 μg of protein was used for western analysis. PME-1 antibody (Santa Cruz) and COXIV (Cell Signaling Technologies) were used for detection of proteins and the blots were developed using chemiluminescence (Pierce ECL Western Blotting Substrate—Thermo Scientific) on the GE ImageQuant LAS 4000. For analysis of Akt, ERK, and β-catenin signaling in tissue culture, western analyses were completed as follows. RL95-2 cells stably infected with lentivirus expressing constructs were selected with puromycin (Invivogen). The cells were incubated with either 50 μM Akt inhibitor (LY 294002, Cell Signaling Technologies) or 40 μM ERK inhibitor (V0126, Cell Signaling Technologies) for 1-2 hours at 37° C. 1.5× Laemelli buffer (0.5 M Tris pH6.8, […], 10% sodium dodecyl sulfate, 100 mM EDTA) was used to prepare cell lysates. 20 μg of protein was used for western analysis. Primary antibodies used were: P-Akt (Ser473), P-Akt (Thr308), pan-Akt, P-ERK (Thr202/204), total ERK (Cell Signaling Technologies), PME-1 (Santa Cruz), phospho-β-catenin (Ser45, Cell Signaling Technologies), phospho-β-catenin (Ser33/37/Thr41, Cell Signaling Technologies), β-catenin (Abcam), DcR2 (Abcam), and GAPDH (Abcam). All experiments were repeated several times with similar results.

SFRP1 = test: qRT-PCR of SFRP1 expression in RL95-2 cells; conditions: RL95-2, normalized to 18S
Procedure: Using RL95-2 endometrial cancer cells, we overexpressed PME-1 (FIG. 21A) or depleted PME-1 with shRNA (FIG. 21B) and confirmed that PME-1 was appropriately expressed.
Total RNA was extracted with Qiagen RNAEasy kit from RL95-2 cells. cDNA was synthesized using 500 ng-1 μg of RNA and SuperScript VILO c-DNA mix (Life Technologies). Taqman probes and PCR-mix were purchased from Life Technologies. All samples were run in triplicates. Results are representative of three independent experiments in which genes of interest were normalized to the house-keeping gene, 18S or GAPDH, where fold-change was calculated using the ddCt method.

## shPPME1 no. 2: shRNA targeting PPME1, SEQ ID NO: 2: GCAGCGATTATTAGTAGAGTT, bp 289-309; used for all subsequent experiments (guide GCAGCGATTATTAGTAGAGTT; listed as Homo sapiens)
RL95-2 cells [1]; 10 days, vs control cells
  decrease in colony formation: 50%
RL95-2 cells [1]; −TGF-β, compared to control cells
  colonies number and size: fewer and smaller colonies
PP2A
  increase in PP2A activity: 30 fold
ECC-1 cells; ECC-1, empty FLAG vector, vs shSCR control
  foci formation: significant decrease
ECC-1 cells; ECC-1 transfected with PP2A, PP4 or PP6, vs shSCR
  foci formation: significant decrease
phospho-Akt
  phosphorylation of Akt: decrease
RL95-2 cells [2]
  decrease in foci: 75%
phospho-ERK
  phospho-ERK: decrease
SFRP1
  SFRP1 expression: significantly increased
SFRP1; listed as shRNA (SEQ ID NO: 2)
  SFRP1 expression: significant increase
